# Assay results: PubChem BioAssay (NCI)
# Several values for one entry are separate records, joined by “and”; a condition that tells them apart may be missing. Equal values may be shown once.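 These data come from cells grown in 96-well plates and exposed to compound for 48 hours at five concentrations. Abbreviation: GI50, concentration required for 50% inhibition of growth. TGI is the concentration that stops growth completely.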
# Key:
# Assay in all cases: NCI anticancer screen, dose series, 48 h
# [1] = system: 786-0 renal
# [2] = system: A498 renal
# [3] = system: A549 NSCLC
# [4] = system: ACHN renal
# [5] = system: CAKI-1 renal
# [6] = system: CCRF-CEM leukemia
# [7] = system: COLO 205 colon
# [8] = system: DLD-1 colon
# [9] = system: DMS 114 small cell lung
# [10] = system: DMS 273 small cell lung
# [11] = system: EKVX NSCLC
# [12] = system: HCC-2998 colon
# [13] = system: HCT-116 colon
# [14] = system: HCT-15 colon
# [15] = system: HL-60(TB) leukemia
# [16] = system: HOP-18 NSCLC
# [17] = system: HOP-62 NSCLC
# [18] = system: HOP-92 NSCLC
# [19] = system: HT29 colon
# [20] = system: IGROV1 ovarian
# [21] = system: K-562 leukemia
# [22] = system: KM12 colon
# [23] = system: KM20L2 colon
# [24] = system: LOX IMVI melanoma
# [25] = system: LXFL 529 NSCLC
# [26] = system: M14 melanoma
# [27] = system: M19-MEL melanoma
# [28] = system: MALME-3M melanoma
# [29] = system: MOLT-4 leukemia
# [30] = system: NCI-H226 lung
# [31] = system: NCI-H23 lung
# [32] = system: NCI-H460 lung
# [33] = system: NCI-H522 lung
# [34] = system: OVCAR-3 ovarian
# [35] = system: OVCAR-4 ovarian
# [36] = system: OVCAR-5 ovarian
# [37] = system: OVCAR-8 ovarian
# [38] = system: RPMI-8226 leukemia
# [39] = system: RXF 393 renal
# [40] = system: SF-268 CNS
# [41] = system: SF-295 CNS
# [42] = system: SF-539 CNS
# [43] = system: SK-MEL-2 melanoma
# [44] = system: SK-MEL-28 melanoma
# [45] = system: SK-MEL-5 melanoma
# [46] = system: SK-OV-3 ovarian
# [47] = system: SN12C renal
# [48] = system: SNB-19 CNS
# [49] = system: SNB-75 CNS
# [50] = system: SNB-78 CNS
# [51] = system: SR leukemia
# [52] = system: SW-620 colon
# [53] = system: TK-10 renal
# [54] = system: U251 CNS
# [55] = system: UACC-257 melanoma
# [56] = system: UACC-62 melanoma
# [57] = system: UO-31 renal
# [58] = system: XF 498 CNS
# [59] = system: BT-549 breast
# [60] = system: HS 578T breast
# [61] = system: T-47D breast
smiles,measurement,setting,value
O=S1Nc2c(Cl)cc(Cl)c(Cl)c2S1 (centres undefined),TGI,[1],> 100 µM
same,TGI,[2],> 100 µM
same,TGI,[3],> 100 µM
same,TGI,[4],> 100 µM
same,TGI,[5],> 100 µM
same,TGI,[6],> 100 µM
same,TGI,[7],> 100 µM
same,TGI,[8],> 100 µM
same,TGI,[9],> 100 µM
same,TGI,[10],> 100 µM
same,TGI,[11],> 100 µM
same,TGI,[12],> 100 µM
same,TGI,[13],> 100 µM
same,TGI,[14],> 100 µM
same,TGI,[15],> 100 µM
same,TGI,[16],> 100 µM
same,TGI,[17],> 100 µM
same,TGI,[18],> 100 µM
same,TGI,[19],> 100 µM
same,TGI,[20],> 100 µM
same,TGI,[21],> 100 µM
same,TGI,[22],> 100 µM
same,TGI,[23],> 100 µM
same,TGI,[24],> 100 µM
same,TGI,[25],> 100 µM
same,TGI,[26],> 100 µM
same,TGI,[27],> 100 µM
same,TGI,[28],> 100 µM
same,TGI,[29],> 100 µM
same,TGI,[30],> 100 µM
same,TGI,[31],> 100 µM
same,TGI,[32],> 100 µM
same,TGI,[33],> 100 µM
same,TGI,[34],> 100 µM
same,TGI,[35],> 100 µM
same,TGI,[36],> 100 µM
same,TGI,[37],> 100 µM
same,TGI,[38],> 100 µM
same,TGI,[39],> 100 µM
same,TGI,[40],> 100 µM
same,TGI,[41],> 100 µM
same,TGI,[42],> 100 µM
same,TGI,[43],> 100 µM
same,TGI,[44],> 100 µM
same,TGI,[45],> 100 µM
same,TGI,[46],> 100 µM
same,TGI,[47],> 100 µM
same,TGI,[48],> 100 µM
same,TGI,[49],> 100 µM
same,TGI,[50],> 100 µM
same,TGI,[51],> 100 µM
same,TGI,[52],21.1 µM
same,TGI,[53],> 100 µM
same,TGI,[54],> 100 µM
same,TGI,[55],> 100 µM
same,TGI,[56],> 100 µM
same,TGI,[57],> 100 µM
Brc1cc2c(cc1Br)CN(c1ccccc1)C2,TGI,[1],> 100 µM
same,TGI,[2],> 100 µM
same,TGI,[3],> 100 µM
same,TGI,[4],> 100 µM
same,TGI,[6],> 100 µM
same,TGI,[7],> 100 µM
same,TGI,[8],> 100 µM
same,TGI,[9],> 100 µM
same,TGI,[10],> 100 µM
same,TGI,[11],> 100 µM
same,TGI,[12],> 100 µM
same,TGI,[13],> 100 µM
same,TGI,[14],> 100 µM
same,TGI,[15],> 100 µM
same,TGI,[17],> 100 µM
same,TGI,[18],> 100 µM
same,TGI,[19],> 100 µM
same,TGI,[20],> 100 µM
same,TGI,[21],> 100 µM
same,TGI,[22],> 100 µM
same,TGI,[23],> 100 µM
same,TGI,[24],> 100 µM
same,TGI,[25],> 100 µM
same,TGI,[26],> 100 µM
same,TGI,[27],> 100 µM
same,TGI,[28],> 100 µM
same,TGI,[29],> 100 µM
same,TGI,[30],> 100 µM
same,TGI,[31],> 100 µM
same,TGI,[32],> 100 µM
same,TGI,[34],> 100 µM
same,TGI,[35],> 100 µM
same,TGI,[36],> 100 µM
same,TGI,[37],> 100 µM
same,TGI,[38],> 100 µM
same,TGI,[39],> 100 µM
same,TGI,[40],> 100 µM
same,TGI,[41],> 100 µM
same,TGI,[42],> 100 µM
same,TGI,[43],> 100 µM
same,TGI,[44],> 100 µM
same,TGI,[45],> 100 µM
same,TGI,[46],> 100 µM
same,TGI,[47],> 100 µM
same,TGI,[48],> 100 µM
same,TGI,[49],> 100 µM
same,TGI,[50],> 100 µM
same,TGI,[52],> 100 µM
same,TGI,[53],> 100 µM
same,TGI,[54],> 100 µM
same,TGI,[55],> 100 µM
same,TGI,[56],> 100 µM
same,TGI,[57],> 100 µM
same,TGI,[58],> 100 µM
N#CCC(=O)N1CCCCCCC1,TGI,[1],> 100 µM
same,TGI,[2],> 100 µM
same,TGI,[3],> 100 µM
same,TGI,[4],> 100 µM
same,TGI,[5],> 100 µM
same,TGI,[6],> 100 µM
same,TGI,[7],28.9 µM
same,TGI,[8],> 100 µM
same,TGI,[9],91.7 µM
same,TGI,[10],> 100 µM
same,TGI,[11],> 100 µM
same,TGI,[12],> 100 µM
same,TGI,[13],> 100 µM
same,TGI,[14],30.5 µM
same,TGI,[15],78 µM
same,TGI,[17],> 100 µM
same,TGI,[19],> 100 µM
same,TGI,[20],> 100 µM
same,TGI,[21],> 100 µM
same,TGI,[22],> 100 µM
same,TGI,[23],> 100 µM
same,TGI,[24],> 100 µM
same,TGI,[25],> 100 µM
same,TGI,[26],> 100 µM
same,TGI,[28],> 100 µM
same,TGI,[31],> 100 µM
same,TGI,[32],> 100 µM
same,TGI,[35],> 100 µM
same,TGI,[36],> 100 µM
same,TGI,[39],> 100 µM
same,TGI,[40],> 100 µM
same,TGI,[41],> 100 µM
same,TGI,[42],> 100 µM
same,TGI,[43],> 100 µM
same,TGI,[44],> 100 µM
same,TGI,[45],> 100 µM
same,TGI,[46],> 100 µM
same,TGI,[47],> 100 µM
same,TGI,[48],> 100 µM
same,TGI,[50],> 100 µM
same,TGI,[52],21.3 µM
same,TGI,[53],> 100 µM
same,TGI,[54],> 100 µM
same,TGI,[55],> 100 µM
same,TGI,[56],> 100 µM
same,TGI,[57],> 100 µM
COc1ccc(/C=C\c2cc(OC)c(OC)c(OC)c2)cc1O,TGI,[1],25.5 µM
same,TGI,[59],> 100 µM
same,TGI,[5],13.9 µM and > 59.5 µM
same,GI50,[7],2.49 µM
same,TGI,[7],43.3 µM and 22.1 µM
same,TGI,[11],82.1 µM
same,TGI,[12],1.22 µM and 2.38 µM
same,TGI,[16],> 100 µM
same,TGI,[60],8.09 µM
same,GI50,[19],0.664 µM
same,TGI,[19],9.28 µM and > 44.9 µM
same,TGI,[23],8.28 µM and 16.2 µM
same,GI50,[35],6.58 µM
same,GI50,[36],4.27 µM
same,TGI,[36],78.6 µM and > 91.4 µM
same,GI50,[44],3.16 µM
same,TGI,[46],< 0.031 µM
same,GI50,[50],0.00409 µM and < 0.001 µM
same,TGI,[50],> 100 µM
same,GI50,[61],48 µM
same,TGI,[61],91.2 µM
same,GI50,[53],2.63 µM and 0.567 µM
same,TGI,[53],4.16 µM
same,TGI,[57],> 88.6 µM
COC(=O)C(NC(=O)c1ccccc1)C(c1ccc(Cl)cc1)P(=O)(OC)OC (centres undefined),TGI,[2],> 100 µM
same,TGI,[3],> 100 µM
same,TGI,[4],> 100 µM
same,TGI,[5],> 100 µM
same,TGI,[6],> 100 µM
same,TGI,[7],> 100 µM
same,TGI,[8],> 100 µM
same,TGI,[10],> 100 µM
same,TGI,[11],> 100 µM
same,TGI,[12],> 100 µM
same,TGI,[13],> 100 µM
same,TGI,[14],> 100 µM
same,TGI,[15],> 100 µM
same,TGI,[17],> 100 µM
same,TGI,[18],> 100 µM
same,TGI,[19],> 100 µM
same,TGI,[20],> 100 µM
same,TGI,[21],> 100 µM
same,TGI,[22],> 100 µM
same,TGI,[23],> 100 µM
same,TGI,[24],> 100 µM
same,TGI,[25],> 100 µM
same,TGI,[26],> 100 µM
same,TGI,[27],> 100 µM
same,TGI,[29],> 100 µM
same,TGI,[30],> 100 µM
same,TGI,[31],> 100 µM
same,TGI,[32],> 100 µM
same,TGI,[33],> 100 µM
same,TGI,[35],> 100 µM
same,TGI,[36],> 100 µM
same,TGI,[37],> 100 µM
same,TGI,[38],> 100 µM
same,TGI,[39],> 100 µM
same,TGI,[40],> 100 µM
same,TGI,[41],> 100 µM
same,TGI,[42],> 100 µM
same,TGI,[43],> 100 µM
same,TGI,[44],> 100 µM
same,TGI,[45],> 100 µM
same,TGI,[46],> 100 µM
same,TGI,[47],> 100 µM
same,TGI,[48],> 100 µM
same,TGI,[49],> 100 µM
same,TGI,[50],> 100 µM
same,TGI,[51],> 100 µM
same,TGI,[52],> 100 µM
same,TGI,[53],> 100 µM
same,TGI,[54],> 100 µM
same,TGI,[55],> 100 µM
same,TGI,[56],> 100 µM
same,TGI,[57],> 100 µM
same,TGI,[58],> 100 µM
